This is an account of results in patent US7199131B2, “Sulfonamide and sulfamide substituted imidazoquinolines” (3M Innovative Properties Company, priority 2001, dated 2007).

The term minimal effective concentration denotes the smallest amount tested that counted as effective. For orientation: melting point means the temperature of the solid-liquid transition.

Series [1] has as its system interferon (α). The experiment in a line: Cytokine Induction in Human Cells: interferon (α) secreted by PBMCs, ELISA. The format is cell-based. The following applies: PBMC, incubated 18 to 24 hours, lowest concentration found to induce interferon. The text has this:
(§1) An in vitro human blood cell system was used to assess cytokine induction by compounds of the invention. Activity is based on the measurement of interferon and tumor necrosis factor (α) (IFN and TNF, respectively) secreted into culture media as described by Testerman et. al. In “Cytokine Induction by the Immunomodulators Imiquimod and S-27609”, Journal of Leukocyte Biology, 58, 365–372 (September, 1995).
(§2) Whole blood is collected by venipuncture into EDTA vacutainer tubes from healthy human donors. Peripheral blood mononuclear cells (PBMCs) are separated from whole blood by density gradient centrifugation using Histopaque®-1077 (Sigma Chemicals, St. Louis, Mo.). The PBMCs are suspended at 3–4×10^6 cells/mL in RPMI 1640 medium containing 10% fetal bovine serum, 2 mM L-glutamine and 1% penicillin/streptomycin solution (RPMI complete). The PBMC suspension is added to 48 well flat bottom sterile tissue culture plates (Costar, Cambridge, Mass. or Becton Dickinson Labware, Lincoln Park, N.J.) containing an equal volume of RPMI complete media containing test compound.
(§3) The compounds are solubilized in dimethyl sulfoxide (DMSO). The DMSO concentration should not exceed a final concentration of 1% for addition to the culture wells.
(§4) The solution of test compound is added at 60 μM to the first well containing RPMI complete and serial (three fold or ten fold) dilutions are made. The PBMC suspension is then added to the wells in an equal volume, bringing the test compound concentrations to the desired range. The final concentration of PBMC suspension is 1.5–2×10^6 cells/mL. The plates are covered with sterile plastic lids, mixed gently and then incubated for 18 to 24 hours at 37° C. in a 5% carbon dioxide atmosphere.
(§5) Following incubation the plates are centrifuged for 5–10 minutes at 1000 rpm (˜200×g) at 4° C. The cell culture supernatant is removed with a sterile polypropylene pipette and transferred to sterile polypropylene tubes. Samples are maintained at −30 to −70° C. until analysis. The samples are analyzed for interferon (α) and tumor necrosis factor (α) by ELISA
Interferon (α) concentration is determined by ELISA using a Human Multi-Species kit from PBL Biomedical Laboratories, New Brunswick, N.J.
(§6) The table below lists the lowest concentration found to induce interferon and the lowest concentration found to induce tumor necrosis factor for each compound.
For orientation: In an ELISA, binding on a coated surface is turned into a signal by an enzyme label.

Series [2] has as its system tumor necrosis factor (α). As to the kind of experiment: Cytokine Induction in Human Cells: tumor necrosis factor (α) secreted by PBMCs, ELISA. The format is cell-based. The note with it: PBMC, incubated 18 to 24 hours, lowest concentration found to induce tumor necrosis factor.
Text: as §1, §2, §3, §4, §5
Tumor necrosis factor (α) (TNF) concentration is determined using ELISA kits available from Genzyme, Cambridge, Mass.; R&D Systems, Minneapolis, Minn.; or Pharmingen, San Diego, Calif.
as §6

SMILES strings stand for the structures.

In turn, `CCCCc1nc2c(N)nc3ccccc3c2n1CCCCCCCCNS(=O)(=O)c1ccccc1` [Example 248, N-[8-(4-amino-2-butyl-1H-imidazo[4,5-c]quinolin-1-yl)octyl]benzenesulfonamide] came in with a melting point of 143 to 144 °C. In series [1], the minimal effective concentration was found to be 0.12 µM. This compound also gave a minimal effective concentration in series [2] of 0.01 µM.
For `COCCc1nc2c(N)nc3ccccc3c2n1CCCNS(=O)(=O)c1ccccc1` [Example 249, N-(3-[4-amino-2-(2-methoxyethyl)-1H-imidazo[4,5-c]quinolin-1-yl]propyl)benzenesulfonamide] the same measures were 149 to 151 °C, 0.01 µM and 1.11 µM.
For `CS(=O)(=O)NCCCCCCCCn1cnc2c(N)nc3ccccc3c21` [Example 252, N-[8-(4-amino-1H-imidazo[4,5-c]quinolin-1-yl)octyl]methanesulfonamide] the same measures were 153 to 155 °C, 0.37 µM and 1.11 µM.
Taken in the same sequence, the figures for `COCCc1nc2c(N)nc3ccccc3c2n1CCCNS(=O)(=O)c1ccc(C)cc1` [Example 253, N-{3-[4-amino-2-(2-methoxyethyl)-1H-imidazo[4,5-c]quinolin-1-yl]propyl}-4-methylbenzenesulfonamide] were 189 to 191 °C, 0.04 µM and 0.12 µM.
Compound `CCCCCc1nc2c(N)nc3c(c2n1CCCCNS(C)(=O)=O)CCCC3` [Example 254, N-[4-(4-amino-2-pentyl-6,7,8,9-tetrahydro-1H-imidazo[4,5-c]quinolin-1-yl)butyl]methanesulfonamide] returned a melting point of 167 to 167.8 °C. In series [1], this compound had a minimal effective concentration of 0.01 µM. The minimal effective concentration in series [2] stood at 1.11 µM.
For `CCOCc1nc2c(N)nc3ccccc3c2n1CCCNS(C)(=O)=O` [Example 255, N-{3-[4-amino-2-(ethoxymethyl)-1H-imidazo[4,5-c]quinolin-1-yl]propyl}methanesulfonamide], the melting point was 208.2 to 209.6 °C. Further, the minimal effective concentration in series [1] came to 0.12 µM. In series [2], this compound came in with a minimal effective concentration of 3.33 µM.
For `COCCc1nc2c(N)nc3ccccc3c2n1CC(C)(C)CNS(C)(=O)=O` [Example 256, N-{3-[4-amino-2-(2-methoxyethyl)-1H-imidazo[4,5-c]quinolin-1-yl]-2,2-dimethylpropyl}methanesulfonamide] the same measures were 204 to 206 °C, 0.01 µM and 0.04 µM.
Taken in the same sequence, the figures for `COCCc1nc2c(N)nc3ccccc3c2n1CCCNS(=O)(=O)c1cccc2c(N(C)C)cccc12` [Example 257, N-{3-[4-amino-2-(2-methoxyethyl)-1H-imidazo[4,5-c]quinolin-1-yl]propyl}-5-(dimethylamino)naphthalene-1-sulfonamide] were 210 to 215 °C, 1.11 µM and 3.33 µM.
Taken in the same sequence, the figures for `Cc1nc2c(N)nc3ccccc3c2n1CCCNS(C)(=O)=O` [Example 258, N-[3-(4-amino-2-methyl-1H-imidazo[4,5-c]quinolin-1-yl)propyl]methanesulfonamide] were 236 to 238 °C, 0.37 µM and 10 µM.
For `COCCc1nc2c(N)nc3c(c2n1CCCNS(C)(=O)=O)CCCC3` [Example 259, N-{3-[4-amino-2-(2-methoxyethyl)-6,7,8,9-tetrahydro-1H-imidazo[4,5-c]quinolin-1-yl]propyl}methanesulfonamide], the melting point was 150 to 152 °C. This compound also showed a minimal effective concentration in series [1] of 0.01 µM. The compound also had a minimal effective concentration in series [2] of 10 µM.
`CCOCc1nc2c(N)nc3c(c2n1CCCNS(C)(=O)=O)CCCC3` [Example 260, N-{3-[4-amino-2-(ethoxymethyl)-6,7,8,9-tetrahydro-1H-imidazo[4,5-c]quinolin-1-yl]propyl}methanesulfonamide] gave a melting point of 212 to 214 °C. In series [1], this compound showed a minimal effective concentration of 0.01 µM. For the same compound, the minimal effective concentration in series [2] amounted to 0.37 µM.
Taken in the same sequence, the figures for `CS(=O)(=O)NCCCn1c(CCCOc2ccccc2)nc2c(N)nc3ccccc3c21` [Example 261, N-{3-[4-amino-2-(3-phenoxypropyl)-1H-imidazo[4,5-c]quinolin-1-yl]propyl}methanesulfonamide] were 176 to 178 °C, greater than 30 µM and 10 µM.
For `CS(=O)(=O)NCCCCn1c(CCCOc2ccccc2)nc2c(N)nc3ccccc3c21` [Example 262, N-{4-[4-amino-2-(3-phenoxypropyl)-1H-imidazo[4,5-c]quinolin-1-yl]butyl}methanesulfonamide] the same measures were 156.4 to 157.1 °C, greater than 30 µM and 10 µM.
Taken in the same sequence, the figures for `CCCCc1nc2c(N)nc3ccccc3c2n1CCNS(=O)(=O)c1ccc(C)cc1` [Example 264, N-[2-(4-amino-2-butyl-1H-imidazo[4,5-c]quinolin-1-yl)ethyl]-4-methylbenzenesulfonamide] were 187 to 188 °C, 1.11 µM and 1.11 µM.
In the case of `CCCCc1nc2c(N)nc3ccccc3c2n1CCNS(C)(=O)=O` [Example 265, N-[2-(4-amino-2-butyl-1H-imidazo[4,5-c]quinolin-1-yl)ethyl]methanesulfonamide], the melting point lay in the range of 210 to 211 °C. Further, in series [1], the minimal effective concentration turned out to be 0.01 µM. In addition, the minimal effective concentration in series [2] came out at 0.04 µM.
Taken in the same sequence, the figures for `CCCCc1nc2c(N)nc3ccccc3c2n1CCCCN1CCCS1(=O)=O` [Example 267, 2-butyl-1-[4-(1,1-dioxidoisothiazolidin-2-yl)butyl]-1H-imidazo[4,5-c]quinolin-4-amine] were 173 to 176 °C, 0.01 µM and 0.12 µM.
